Reference: patent US8334316B2, “Substituted organosulfur compounds and methods of using thereof” (ACEA Biosciences, Inc., priority 2004, dated 2012)
pIC50: −log10 of the molar value. Entries after “also recorded” stand apart in the source; their conditions may differ.

How the values were obtained:
Assay type in all cases: cell-based
[1] = system: OVCAR4 (human ovarian cancer cell line); assay: RT-CES system cell proliferation/cytotoxicity IC50, OVCAR4; conditions: OVCAR-4, time point of maximum inhibition
Description: (§1) The RT-CES system comprises three components, an electronic sensor analyzer, a device station and 16× or 96× microtiter plate devices. Microelectrode sensor array was fabricated on glass slides with lithographical microfabrication methods and the electrode-containing slides are assembled to plastic trays to form electrode-containing wells. Each 16× (or 96×) microtiter plate device used in RT-CES system comprises up to 16 (or 96) such electrode-containing wells. The device station receives the 16× or 96× microtiter plate devices and is capable of electronically switching any one of the wells to the sensor analyzer for impedance measurement. In operation, the devices with cells cultured in the wells are placed into a device station that is located inside an incubator. Electrical cables connect the device station to the sensor analyzer. Under the RT-CES software control, the sensor analyzer can automatically select wells to be measured and continuously conduct impedance measurements. The impedance data from the analyzer is transferred to a computer, analyzed and processed by the integrated software.
(§2) To quantify cell status based on the measured cell-electrode impedance, a parameter termed Cell Index is derived, according to
(§3) [formula] where Rb(f) and Rcell(f) are the frequency dependent electrode resistances (a component of impedance) without cells or with cell present, respectively. N is the number of the frequency points at which the impedance is measured. Thus, Cell Index is a quantitative measure of the status of the cells in an electrode-containing well. Under the same physiological conditions, more cells attached on to the electrodes leads to larger Rcell(f) value, leading to a larger value for Cell Index. Furthermore, for the same number of cells present in the well, a change in the cell status such as morphology will lead to a change in the Cell Index. For example, an increase in cell adhesion or cell spreading leads to larger cell-electrode contact area which will lead to an increase in Rcell(f) and thus a larger value for Cell Index. The Cell Index may also be calculated using a formula different from the one described here. Other methods for calculating the Cell Index based on impedance measurement can be found in PCT application number PCT/US04/37696, fined on Nov. 12, 2004, PCT application number PCT/US05/04481, filed on Feb. 9, 2005, U.S. patent application Ser. No. 10/987,732, filed on Nov. 12, 2004, and U.S. patent application Ser. No. 11/055,639, filed on Feb. 9, 2005.
OVCAR4 cells (human ovarian cancer cells) were seeded into wells of 16× or 96× microtiter plate devices (electronic plates, i.e., the plates comprise microelectrode sensor arrays in the wells of the plate) with an initial seeding density of 10,000 cells per well and were pre-incubated in incubator under standard cell culture conditions for about 27 hrs. Dibenzyl trisulfide solution in DMSO was added into wells following the incubation period. The cell status was monitored prior to and after the compound addition using RT-CES system. The cell indexes of different wells were between 1.4 and 1.7 just before the compound addition. […] The cell index was normalized against the cell index values at a time point just after compound addition (about 28 hrs after cell seeding).
For the assay performed on the RT-CES system, the cells were seeded into the 16× or 96× microtiter plate devices (electronic plates, i.e., the plates comprise microelectrode sensor arrays in the wells of the plate) at the seeding density ranging from 5000 cells/well to 15,000 cells/well. The cells were incubated at 5% CO2 and 37° C. for overnight till the cell indices reached the growth phase where the cell index was between 0.8 and 1.2. Serially diluted compounds were then added to the cells followed by dynamic monitoring of the effect of the compounds on the cell proliferation and cytotoxicity. […]

[2] = system: HepG2 cells (human hepatosarcoma); assay: RT-CES system cell proliferation/cytotoxicity, HepG2; conditions: for IC50: Homo sapiens, HepG2, time point of maximum inhibition
Description: as §1, §2, §3
Different types of human cancer cells, including NCI-H460 (non-small cell lung cancer cells), MV522 SW (non-small cell lung cancer cells), MCF7 (breast cancer cells), A549 (non-small cell lung cancer cells), PC3 (prostate cancer cells), A431 (epidermoid cancer cells), HT1080 (fibrosarcoma cells), MDA.MB2321 (breast cancer cells), HT29 (colon cancer cells), HCC2998 (colon cancer cells), OVCAR4 (ovarian cancer cells), A2780 (ovarian cancer cells) and HepG2 (human hepatosarcoma) with different numbers (4000 to 20,000 per well) were seeded into 16× or 96× microtiter device and monitored by RT-CES™ system. The cells were allowed to grow for about 24 hours prior to the addition of dibenzyl trisulfide dissolved in DMSO solution (final DMSO concentration: 0.2%; final dibenzyl trisulfide concentration: between 1.5625 μM and 100 μM). The cell-electrode impedance was continuously measured and the corresponding, time dependent cell-index values were derived and recorded.
HepG2 cells (human hepatosarcoma cells) were seeded into wells of 16× or 96× microtiter plate devices (electronic plates, i.e., the plates comprise microelectrode sensor arrays in the wells of the plate) with an initial seeding density of 15,000 cells per well and were pre-incubated in incubator under standard cell culture conditions for about 22 hrs. Dibenzyl trisulfide solution in DMSO was added into wells following the incubation period. […]

A2780 cells = assay: MTT assay IC50 (48 h), A2780; conditions: Homo sapiens; A2780, 48 hours
Method: (§4) In another assay format, a test compound is assayed for its cytotoxicity and/or cytostatic effect on certain cancer cell types, using endpoint assay methods. Cells in the NCI cancer cell panel may be used. Cells after a pre-incubation for certain length of time (for example, 8 hrs or 24 hrs) are incubated with a test compound at serially-diluted concentrations (for example, five 10-fold dilutions) for 24 hrs and/or 48 hrs, and/or other specific length of time. The dose dependent cytotoxicity and/or cytostatic effects of test compounds can then be tested and evaluated using the 3-(4,5-dimethylthiazol-2-yl)-2,5-diphenyltetrazolium bromide (MTT) assay method, as described by, for example, Boyd (In Principle of Practice of Oncology, Devita, J. T., Hellman, S. and Rosenberg S. A. (Eds), 1989, Vol, 3, PPO Update, No. 10).
(§5) The anticancer potency of DBTS and its derivatives were tested in 8 different types of human cancer cell lines using the RT-CES system and MTT assay. The 8 cancer cell lines were HT1080 (the human fibrosarcoma cell line), H460 (human non small cell lung cancer cell line), OVCAR4 (the human ovarian cancer cell line), MCF7 (human breast cancer cell line) MDA-MB231 (M231, the human breast cancer cell line) A2780 (the human […] cancer cell line) Jurkat (the human T cell leukemia cell line). The test DBTS derivatives include ACEA100107, ACEA100108, ACEA100109, ACEA100111, ACEA100115, ACEA100116, ACEA100117, ACEA100118, ACEA100119, and ACEA100120.
(§6) For the MTT assay, the cells were seeded into the regular 96× well plates at the cell seeding density ranging from 5000 cells/well to 15,000 cells/well. The cells were incubated at 5% CO2 and 37° C. for overnight. The derivatives were serially diluted and added to the cells. The treatment was terminated after 48 hours of incubation by adding MTT staining reagent. After 4 hours, the staining was stopped by the stop buffer and then the calorimetric measurement was carried out on a microtiter plate reader at dual wave length, 650 nm and 550 nm.

[3] = system: Jurkat (human T cell leukemia cell line); assay: MTT assay IC50 (48 h), Jurkat
Method: as §4, §5, §6

Compound | IC50 [1] | IC50 [2] | Effect on HepG2 cell proliferation (cell index) ([2]; within the exposing dose range (1.5625-100 μM)) | pIC50 (A2780 cells) | pIC50 [3]
c1ccc(CSSSCc2ccccc2)cc1 [DBTS, Dibenzyl trisulfide] | 1.75 µM | > 50 µM | did not demonstrate anti-proliferation ability; also recorded: exhibits no inhibition effect on HepG2 cell proliferation and no cytotoxic effect | 5.92 | 6.46
Clc1ccccc1CSSSCc1ccccc1Cl [ACEA100115, Di(o-chlorobenzyl)trisulfide] | 0.5 µM | > 50 µM | – | 5.82 | 6.29
Fc1ccc(CSSSCc2ccc(F)cc2)cc1 [ACEA100108, Di(p-fluorobenzyl)trisulfide] | 2 µM | > 50 µM | – | 5.33 | 6.46
Clc1ccc(CSSSCc2ccc(Cl)cc2)cc1 [ACEA100118, Di(p-chlorobenzyl)trisulfide] | 2.25 µM | > 50 µM | – | 6.10 | 6.30
Cc1cccc(CSSSCc2cccc(C)c2)c1 [ACEA100116, di(m-methylbenzyl)trisulfide] | 0.6 µM | > 50 µM | – | 6.10 | 6.52
FC(F)(F)c1cccc(CSSSCc2cccc(C(F)(F)F)c2)c1 [ACEA100117, Di(m-trifluoromethylbenzyl)trisulfide] | 33.5 µM | > 50 µM | – | 4.93 | 5.10
